Values quoted from earlier work in US5945105A, “Peptides of the antigen Sm-D and their use, in particular for the diagnostics of systemic lupus erythematosus (SLE)” (Imtec Immundiagnostika GmbH, priority 1995, dated 1999).

Tested on: anti-SmD antibody-positive sera / SLE sera
Details: cited from earlier work; for anti-SmD antibody-positive sera that reacted with the peptide: 18 anti-SmD antibody-positive sera (immuno blotting); for positive reactions in the ELISA, SLE sera: 165 SLE sera

Substance	anti-SmD antibody-positive sera that reacted with the peptide [%]	positive reactions in the ELISA, SLE sera [%]
97-119: third region of the SmD protein, amino acids 97 through 119 (Barakat et al.) (GRGRGRGRGRGRGRGRGRGGPRR; UniProt P62314 97-119, looked up, fragment) [Peptide 97-119]	33	1
1-20: first region of the SmD protein, amino acids 1 through 20 (Barakat et al.) (MKLVRFLMKLSHETVTIELK; UniProt P62314 1-20, looked up, fragment) [Peptide 1-20]	67	59
44-67: second region of the SmD protein, amino acids 44 through 67 (Barakat et al.) (KMTLKNREPVQLETLSIRGNNIRY; UniProt P62314 44-67, looked up, fragment) [Peptide 44-67]	89	37
